# From patent US12077503B2, “Substituted cyclic amides and their use as herbicides” (FMC CORPORATION, priority 2015, dated 2024)
# Key:
# Type in all cases: in vivo
# [1] = tested on: redroot pigweed (Amaranthus retroflexus); experiment: Test G Post-Emergence Protocol; conditions: Amaranthus retroflexus, post-emergence, 312 h, read-out: Pigweed, Redroot damage rating; for pest or weed control at 15.625 g/ha: 15.625 g ai/ha, evaluated after 13 days (100=total damage to plant; 0=no damage to plant); for pest or weed control at 62.5 g/ha: 62.5 g ai/ha; for pest or weed control at 62.5 g/ha / pest or weed control at 250 g/ha: evaluated after 13 days, 100=total damage to plant, 0=no damage to plant; for pest or weed control at 250 g/ha: 250 g ai/ha
# In short: (§1)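 Values are percent visual injury at 13 days after treatment (0 none, 100 total). Treatment was a post-emergence spray at 15.625, 62.5 or 250 g/ha on 8-day-old pot plants kept at 24/16 °C.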
# [2] = tested on: ivy-leaved morning glory (Ipomoea hederacea); experiment: Test G Post-Emergence Protocol; conditions: Ipomoea, post-emergence, 312 h, read-out: Morningglory, Ivy-leaved damage rating; for pest or weed control at 15.625 g/ha: 15.625 g ai/ha, evaluated after 13 days (100=total damage to plant; 0=no damage to plant); for pest or weed control at 62.5 g/ha: 62.5 g ai/ha; for pest or weed control at 62.5 g/ha / pest or weed control at 250 g/ha: evaluated after 13 days, 100=total damage to plant, 0=no damage to plant; for pest or weed control at 250 g/ha: 250 g ai/ha
# In short: as §1
# corn (Zea mays) [3] = experiment: Test G Post-Emergence Protocol; conditions: Zea mays, post-emergence, 312 h, read-out: Corn damage rating; for plant injury at 15.625 g/ha: 15.625 g ai/ha, evaluated after 13 days (100=total damage to plant; 0=no damage to plant); for plant injury at 62.5 g/ha: 62.5 g ai/ha; for plant injury at 62.5 g/ha / plant injury at 250 g/ha: evaluated after 13 days, 100=total damage to plant, 0=no damage to plant; for plant injury at 250 g/ha: 250 g ai/ha
# In short: as §1
# [4] = tested on: barnyardgrass (Echinochloa crus-galli); experiment: Test G Post-Emergence Protocol; conditions: Echinochloa crus-galli, post-emergence, 312 h, read-out: Barnyardgrass damage rating; for pest or weed control at 15.625 g/ha: 15.625 g ai/ha, evaluated after 13 days (100=total damage to plant; 0=no damage to plant); for pest or weed control at 62.5 g/ha: 62.5 g ai/ha; for pest or weed control at 62.5 g/ha / pest or weed control at 250 g/ha: evaluated after 13 days, 100=total damage to plant, 0=no damage to plant; for pest or weed control at 250 g/ha: 250 g ai/ha
# In short: as §1
# [5] = tested on: velvetleaf (Abutilon theophrasti); experiment: Test G Post-Emergence Protocol; conditions: Abutilon theophrasti, post-emergence, 312 h, read-out: Velvetleaf damage rating; for pest or weed control at 15.625 g/ha: 15.625 g ai/ha, evaluated after 13 days (100=total damage to plant; 0=no damage to plant); for pest or weed control at 62.5 g/ha: 62.5 g ai/ha; for pest or weed control at 62.5 g/ha / pest or weed control at 250 g/ha: evaluated after 13 days, 100=total damage to plant, 0=no damage to plant; for pest or weed control at 250 g/ha: 250 g ai/ha
# In short: as §1
# [6] = tested on: giant foxtail (Setaria faberi); experiment: Test G Post-Emergence Protocol; conditions: Setaria faberi, post-emergence, 312 h, read-out: Foxtail, Giant damage rating; for pest or weed control at 15.625 g/ha: 15.625 g ai/ha, evaluated after 13 days (100=total damage to plant; 0=no damage to plant); for pest or weed control at 62.5 g/ha: 62.5 g ai/ha; for pest or weed control at 62.5 g/ha / pest or weed control at 250 g/ha: evaluated after 13 days, 100=total damage to plant, 0=no damage to plant; for pest or weed control at 250 g/ha: 250 g ai/ha
# In short: as §1
# [7] = tested on: redroot pigweed (Amaranthus retroflexus); experiment: Test G Pre-Emergence Protocol; conditions: Amaranthus retroflexus, pre-emergence, 312 h, evaluated after 13 days; for pest or weed control at 15.625 g/ha: 15.625 g ai/ha; for pest or weed control at 15.625 g/ha / pest or weed control at 250 g/ha: read-out: Pigweed, Redroot damage rating (100=total damage to plant; 0=no damage to plant); for pest or weed control at 62.5 g/ha: 62.5 g ai/ha, 100=total damage to plant, 0=no damage to plant, read-out: Pigweed, Redroot damage rating; for pest or weed control at 250 g/ha: 250 g ai/ha
# In short: (§2)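 Spraying took place one day after sowing, at 15.625, 62.5 or 250 g/ha, using an acetone/water (50:50) spray solution containing 0.5% Tween 20. Plants were kept under glasshouse conditions (24/16 °C, 14 h light, 65% humidity, watered twice daily), and injury was rated 0–100 at day 13.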
# [8] = tested on: ivy-leaved morning glory (Ipomoea hederacea); experiment: Test G Pre-Emergence Protocol; conditions: Ipomoea, pre-emergence, 312 h, evaluated after 13 days; for pest or weed control at 15.625 g/ha: 15.625 g ai/ha; for pest or weed control at 15.625 g/ha / pest or weed control at 250 g/ha: read-out: Morningglory, Ivy-leaved damage rating (100=total damage to plant; 0=no damage to plant); for pest or weed control at 62.5 g/ha: 62.5 g ai/ha, 100=total damage to plant, 0=no damage to plant, read-out: Morningglory, Ivy-leaved damage rating; for pest or weed control at 250 g/ha: 250 g ai/ha
# In short: as §2
# corn (Zea mays) [9] = experiment: Test G Pre-Emergence Protocol; conditions: Zea mays, pre-emergence, 312 h, evaluated after 13 days; for plant injury at 15.625 g/ha: 15.625 g ai/ha; for plant injury at 15.625 g/ha / plant injury at 250 g/ha: read-out: Corn damage rating (100=total damage to plant; 0=no damage to plant); for plant injury at 62.5 g/ha: 62.5 g ai/ha, 100=total damage to plant, 0=no damage to plant, read-out: Corn damage rating; for plant injury at 250 g/ha: 250 g ai/ha
# In short: as §2
# [10] = tested on: barnyardgrass (Echinochloa crus-galli); experiment: Test G Pre-Emergence Protocol; conditions: Echinochloa crus-galli, pre-emergence, 312 h, evaluated after 13 days; for pest or weed control at 15.625 g/ha: 15.625 g ai/ha; for pest or weed control at 15.625 g/ha / pest or weed control at 250 g/ha: read-out: Barnyardgrass damage rating (100=total damage to plant; 0=no damage to plant); for pest or weed control at 62.5 g/ha: 62.5 g ai/ha, 100=total damage to plant, 0=no damage to plant, read-out: Barnyardgrass damage rating; for pest or weed control at 250 g/ha: 250 g ai/ha
# In short: as §2
# [11] = tested on: velvetleaf (Abutilon theophrasti); experiment: Test G Pre-Emergence Protocol; conditions: Abutilon theophrasti, pre-emergence, 312 h, evaluated after 13 days; for pest or weed control at 15.625 g/ha: 15.625 g ai/ha; for pest or weed control at 15.625 g/ha / pest or weed control at 250 g/ha: read-out: Velvetleaf damage rating (100=total damage to plant; 0=no damage to plant); for pest or weed control at 62.5 g/ha: 62.5 g ai/ha, 100=total damage to plant, 0=no damage to plant, read-out: Velvetleaf damage rating; for pest or weed control at 250 g/ha: 250 g ai/ha
# In short: as §2
# [12] = tested on: giant foxtail (Setaria faberi); experiment: Test G Pre-Emergence Protocol; conditions: Setaria faberi, pre-emergence, 312 h, evaluated after 13 days; for pest or weed control at 15.625 g/ha: 15.625 g ai/ha; for pest or weed control at 15.625 g/ha / pest or weed control at 250 g/ha: read-out: Foxtail, Giant damage rating (100=total damage to plant; 0=no damage to plant); for pest or weed control at 62.5 g/ha: 62.5 g ai/ha, 100=total damage to plant, 0=no damage to plant, read-out: Foxtail, Giant damage rating; for pest or weed control at 250 g/ha: 250 g ai/ha
# In short: as §2
SMILES,pest or weed control at 15.625 g/ha [1] [%],pest or weed control at 62.5 g/ha [1] [%],pest or weed control at 250 g/ha [1] [%],pest or weed control at 15.625 g/ha [2] [%],pest or weed control at 62.5 g/ha [2] [%],pest or weed control at 250 g/ha [2] [%],plant injury at 15.625 g/ha (corn (Zea mays) [3]) [%],plant injury at 62.5 g/ha (corn (Zea mays) [3]) [%],plant injury at 250 g/ha (corn (Zea mays) [3]) [%],pest or weed control at 15.625 g/ha [4] [%],pest or weed control at 62.5 g/ha [4] [%],pest or weed control at 250 g/ha [4] [%],pest or weed control at 15.625 g/ha [5] [%],pest or weed control at 62.5 g/ha [5] [%],pest or weed control at 250 g/ha [5] [%],pest or weed control at 15.625 g/ha [6] [%],pest or weed control at 62.5 g/ha [6] [%],pest or weed control at 250 g/ha [6] [%],pest or weed control at 15.625 g/ha [7] [%],pest or weed control at 62.5 g/ha [7] [%],further results
Cc1c(F)cccc1NC(=O)[C@@H]1C(=O)N(C)C[C@H]1c1cccc(C(C)(C)F)c1 (racemic) [Compound 1827],0,0,0,0,10,10,0,10,60,0,70,80,0,0,40,50,80,80,0,0,pest or weed control at 250 g/ha [7]: 0%; pest or weed control at 15.625 g/ha [8]: 0%; pest or weed control at 62.5 g/ha [8]: 0%; pest or weed control at 250 g/ha [8]: 20%; plant injury at 15.625 g/ha (corn (Zea mays) [9]): 0%; plant injury at 62.5 g/ha (corn (Zea mays) [9]): 0%; plant injury at 250 g/ha (corn (Zea mays) [9]): 50%; pest or weed control at 15.625 g/ha [10]: 0%; pest or weed control at 62.5 g/ha [10]: 80%; pest or weed control at 250 g/ha [10]: 90%; pest or weed control at 15.625 g/ha [11]: 0%; pest or weed control at 62.5 g/ha [11]: 0%; pest or weed control at 250 g/ha [11]: 10%; pest or weed control at 15.625 g/ha [12]: 40%; pest or weed control at 62.5 g/ha [12]: 90%; pest or weed control at 250 g/ha [12]: 90%
C=C(C)c1cccc([C@@H]2CN(C)C(=O)[C@H]2C(=O)Nc2cccc(F)c2C)c1 (racemic) [Compound 1828],0,0,20,20,60,70,0,10,70,30,80,80,0,20,10,70,80,80,0,0,pest or weed control at 250 g/ha [7]: 0%; pest or weed control at 15.625 g/ha [8]: 0%; pest or weed control at 62.5 g/ha [8]: 0%; pest or weed control at 250 g/ha [8]: 30%; plant injury at 15.625 g/ha (corn (Zea mays) [9]): 0%; plant injury at 62.5 g/ha (corn (Zea mays) [9]): 10%; plant injury at 250 g/ha (corn (Zea mays) [9]): 70%; pest or weed control at 15.625 g/ha [10]: 70%; pest or weed control at 62.5 g/ha [10]: 80%; pest or weed control at 250 g/ha [10]: 90%; pest or weed control at 15.625 g/ha [11]: 0%; pest or weed control at 62.5 g/ha [11]: 0%; pest or weed control at 250 g/ha [11]: 30%; pest or weed control at 15.625 g/ha [12]: 80%; pest or weed control at 62.5 g/ha [12]: 90%; pest or weed control at 250 g/ha [12]: 90%
CN1C[C@@H](c2cccc(Oc3ccc(F)cc3)c2)[C@H](C(=O)Nc2cccc(F)n2)C1=O (racemic) [Compound 1829],0,20,60,20,20,30,20,0,60,0,60,70,0,0,20,70,80,80,0,0,pest or weed control at 250 g/ha [7]: 30%; pest or weed control at 15.625 g/ha [8]: 0%; pest or weed control at 62.5 g/ha [8]: 0%; pest or weed control at 250 g/ha [8]: 0%; plant injury at 15.625 g/ha (corn (Zea mays) [9]): 0%; plant injury at 62.5 g/ha (corn (Zea mays) [9]): 10%; plant injury at 250 g/ha (corn (Zea mays) [9]): 60%; pest or weed control at 15.625 g/ha [10]: 60%; pest or weed control at 62.5 g/ha [10]: 70%; pest or weed control at 250 g/ha [10]: 90%; pest or weed control at 15.625 g/ha [11]: 0%; pest or weed control at 62.5 g/ha [11]: 0%; pest or weed control at 250 g/ha [11]: 20%; pest or weed control at 15.625 g/ha [12]: 70%; pest or weed control at 62.5 g/ha [12]: 80%; pest or weed control at 250 g/ha [12]: 90%
